According to patent US11820773B2, “Tricyclic compounds” (ALIGOS THERAPEUTICS, INC., priority 2020, dated 2023):

Test system: HBV
Test: HBV-DNA antiviral assay using HepG2.117 cells (intracellular HBV DNA by qPCR)
Type: cell-based, genotype D HBV
Settings: HBV DNA inhibition, 3 days incubation, 2% DMSO
Outline: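 HepG2.117 cells (stable genotype D HBV, Tet-off) seeded without doxycycline, treated next day with 9-point 4-fold dilutions in 2% DMSO for 3 days at 37° C. Intracellular HBV DNA quantified by qPCR against a standard curve; viability by CellTiter-Glo ATP. EC50, EC90, CC50 from variable-slope dose-response fits versus DMSO control.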

Compound	EC50
CNC(=O)c1ccc(-n2c(=O)c3c(n4ncc(CC5CC5)c24)CN(C(=O)c2ccc(Br)c(C(F)(F)F)c2)C(C)C3)cc1 (racemic) [Compound 21a, N-methyl-4-[rac-(11R)-12-[4-bromo-3-(trifluoromethyl)benzoyl]-5-(cyclopropylmethyl)-11-methyl-8-oxo-2,3,7,12-tetrazatricyclo[7.4.0.0^2,6]trideca-1(9),3,5-trien-7-yl]benzamide]	< 50 nM

Same assay, conditions: Hepatitis B virus, 72 h, HBV DNA inhibition, 3 days incubation, 2% DMSO

Compound	EC50
Cn1cncc1-c1ccc(-n2c(=O)c3c(n4ncc(Cc5ccccc5)c24)CN(C(=O)c2ccc(Br)c(C(F)(F)F)c2)CC3)cc1 [Compound 33, 5-benzyl-12-[4-bromo-3-(trifluoromethyl)benzoyl]-7-[4-(3-methylimidazol-4-yl)phenyl]-2,3,7,12-tetrazatricyclo[7.4.0.0^2,6]trideca-1(9),3,5-trien-8-one]	< 50 nM
C[C@H]1Cc2c(n3ncc(Cc4ccccc4)c3n(-c3ccc(-c4nnn[nH]4)cc3)c2=O)CN1C(=O)c1ccc(Br)c(C(F)(F)F)c1 (stereo in doubt) [Compound 71b, rac-(11S)-5-benzyl-12-[4-bromo-3-(trifluoromethyl)benzoyl]-11-methyl-7-[4-(1H-tetrazol-5-yl)phenyl]-2,3,7,12-tetrazatricyclo[7.4.0.0^2,6]trideca-1(9),3,5-trien-8-one]	> 5000 nM
COP(=O)(OC)OCN(C)C(=O)c1ccc(-n2c(=O)c3c(n4ncc(CC5CC5)c24)CN(C(=O)c2ccc(Br)c(C(F)(F)F)c2)[C@@H](C)C3)cc1 (racemic) [Compound 103, Dimethyl [methyl-[4-[rac-(11S)-12-[4-bromo-3-(trifluoromethyl)benzoyl]-5-(cyclopropylmethyl)-11-methyl-8-oxo-2,3,7,12-tetrazatricyclo[7.4.0.0^2,6]trideca-1(9),3,5-trien-7-yl]benzoyl]amino]methyl Phosphate]	> 5000 nM
CC(C)[C@H](N)C(=O)OCN(C)C(=O)c1ccc(-n2c(=O)c3c(n4ncc(CC5CC5)c24)CN(C(=O)c2ccc(Br)c(C(F)(F)F)c2)[C@@H](C)C3)cc1 [Compound 90, [[4-[(11S)-12-[4-bromo-3-(trifluoromethyl)benzoyl]-5-(cyclopropylmethyl)-11-methyl-8-oxo-2,3,7,12-tetrazatricyclo[7.4.0.0^2,6]trideca-1(9),3,5-trien-7-yl]benzoyl]-methylamino]methyl (2S)-2-amino-3-methyl-butanoate]	> 5000 nM
CNc1n[nH]c2cc(-n3c(=O)c4c(n5ncc(CC(C)C)c35)CN(C(=O)c3ccc(Cl)c(C(F)(F)F)c3)[C@H](C)C4)ccc12 (stereo in doubt) [Compound 56a, rac-(11R)-12-[4-chloro-3-(trifluoromethyl)benzoyl]-5-isobutyl-11-methyl-7-[3-(methylamino)-1H-indazol-6-yl]-2,3,7,12-tetrazatricyclo[7.4.0.0^2,6]trideca-1(9),3,5-trien-8-one]	< 50 nM
Cc1nnc(-c2ccc(-n3c(=O)c4c(n5ncc(Cc6ccccc6)c35)CN(C(=O)c3ccc(Cl)c(C(F)(F)F)c3)[C@@H](C)C4)cc2)[nH]1 (stereo in doubt) [Compound 52b, rac-(11S)-5-benzyl-12-[4-chloro-3-(trifluoromethyl)benzoyl]-11-methyl-7-[4-(5-methyl-4H-1,2,4-triazol-3-yl)phenyl]-2,3,7,12-tetrazatricyclo[7.4.0.0^2,6]trideca-1(9),3,5-trien-8-one]	50 to 500 nM
Cc1nnc(-c2ccc(-n3c(=O)c4c(n5ncc(CC(C)C)c35)CN(C(=O)c3ccc(Br)c(Cl)c3)[C@H](C)C4)cc2)[nH]1 (stereo in doubt) [Compound 66a, rac-(11R)-12-(4-bromo-3-chloro-benzoyl)-5-isobutyl-11-methyl-7-[4-(5-methyl-4H-1,2,4-triazol-3-yl)phenyl]-2,3,7,12-tetrazatricyclo[7.4.0.0^2,6]trideca-1(9),3,5-trien-8-one]	< 50 nM
CNc1n[nH]c2cc(-n3c(=O)c4c(n5ncc(CC(C)C)c35)CN(C(=O)c3ccc(Br)c(Cl)c3)[C@H](C)C4)ccc12 (stereo in doubt) [Compound 57a, rac-(11R)-12-(4-bromo-3-chloro-benzoyl)-5-isobutyl-11-methyl-7-[3-(methylamino)-1H-indazol-6-yl]-2,3,7,12-tetrazatricyclo[7.4.0.0^2,6]trideca-1(9),3,5-trien-8-one]	< 50 nM
C[C@@H]1Cc2c(n3ncc(CC4CC4)c3n(-c3ccc(C(=O)N(C)CO)cc3)c2=O)CN1C(=O)c1ccc(Br)c(C(F)(F)F)c1 (stereo in doubt) [Compound 101, N-(hydroxymethyl)-N-methyl-4-[rac-(11R)-12-[4-bromo-3-(trifluoromethyl)benzoyl]-5-(cyclopropylmethyl)-11-methyl-8-oxo-2,3,7,12-tetrazatricyclo[7.4.0.0^2,6]trideca-1(9),3,5-trien-7-yl]benzamide]	50 to 500 nM
Cc1cnn(-c2ccc(-n3c(=O)c4c(n5ncc(CC(C)C)c35)CN(C(=O)c3ccc(Br)c(C(F)(F)F)c3)[C@@H](C)C4)cc2)n1 (stereo in doubt) [Compound 99b, rac-(11S)-12-[4-bromo-3-(trifluoromethyl)benzoyl]-5-isobutyl-11-methyl-7-[4-(4-methyltriazol-2-yl)phenyl]-2,3,7,12-tetrazatricyclo[7.4.0.0^2,6]trideca-1(9),3,5-trien-8-one]	500 to 5000 nM
CNC(=O)c1cnc(-n2c(=O)c3c(n4ncc(Cc5ccccc5)c24)CN(C(=O)c2ccc(Br)c(C(F)(F)F)c2)[C@H](C)C3)cn1 (stereo in doubt) [Compound 73a, N-methyl-5-[rac-(11R)-5-benzyl-12-[4-bromo-3-(trifluoromethyl)benzoyl]-11-methyl-8-oxo-2,3,7,12-tetrazatricyclo[7.4.0.0^2,6]trideca-1(9),3,5-trien-7-yl]pyrazine-2-carboxamide]	< 50 nM
C#CCc1cnn2c3c(c(=O)n(-c4ccc(C(=O)NC)cc4)c12)C[C@@H](C)N(C(=O)c1ccc(Br)c(C(F)(F)F)c1)C3 (stereo in doubt) [Compound 78a, N-methyl-4-[rac-(11R)-12-[4-bromo-3-(trifluoromethyl)benzoyl]-11-methyl-8-oxo-5-prop-2-ynyl-2,3,7,12-tetrazatricyclo[7.4.0.0^2,6]trideca-1 (9),3,5-trien-7-yl]benzamide]	< 50 nM
CC(C)Cc1cnn2c3c(c(=O)n(-c4ccc(-c5n[nH]c(=O)n5C)cc4)c12)C[C@@H](C)N(C(=O)c1ccc(Br)c(C(F)(F)F)c1)C3 (stereo in doubt) [Compound 81a, rac-(11R)-12-[4-bromo-3-(trifluoromethyl)benzoyl]-5-isobutyl-11-methyl-7-[4-(4-methyl-5-oxo-1H-1,2,4-triazol-3-yl)phenyl]-2,3,7,12-tetrazatricyclo[7.4.0.0^2,6]trideca-1(9),3,5-trien-8-one]	< 50 nM
Cc1nnc(-c2ccc(-n3c(=O)c4c(n5ncc(Cc6ccccc6)c35)CN(C(=O)c3ccc(Br)c(C(F)(F)F)c3)CC4)cc2)n1C [Compound 32, 5-benzyl-12-[4-bromo-3-(trifluoromethyl)benzoyl]-7-[4-(4,5-dimethyl-1,2,4-triazol-3-yl)phenyl]-2,3,7,12-tetrazatricyclo[7.4.0.0^2,6]trideca-1(9),3,5-trien-8-one]	< 50 nM
Cc1nn[nH]c1-c1cc(-n2c(=O)c3c(n4ncc(Cc5ccccc5)c24)CN(C(=O)c2ccc(Br)c(C(F)(F)F)c2)[C@@H](C)C3)nn1C (stereo in doubt) [Compound 83b, rac-(11S)-5-benzyl-12-[4-bromo-3-(trifluoromethyl)benzoyl]-11-methyl-7-[1-methyl-5-(4-methyl-1H-triazol-5-yl)pyrazol-3-yl]-2,3,7,12-tetrazatricyclo[7.4.0.0^2,6]trideca-1(9),3,5-trien-8-one]	50 to 500 nM
CC(C)Cc1cnn2c3c(c(=O)n(-c4ccc(-c5nc(=O)on5C)cc4)c12)C[C@H](C)N(C(=O)c1ccc(Br)c(C(F)(F)F)c1)C3 (stereo in doubt) [Compound 94b, 2-methyl-3-[4-[rac-(11S)-12-[4-bromo-3-(trifluoromethyl)benzoyl]-5-isobutyl-11-methyl-8-oxo-2,3,7,12-tetrazatricyclo[7.4.0.0^2,6]trideca-1(9),3,5-trien-7-yl]phenyl]-1,2,4-oxadiazol-5-one]	50 to 500 nM
Cc1nn[nH]c1-c1ccc(-n2c(=O)c3c(n4ncc(CC5CCC5)c24)CN(C(=O)c2ccc(Br)c(C(F)(F)F)c2)[C@@H](C)C3)cc1 (stereo in doubt) [Compound 76b, rac-(11S)-12-[4-bromo-3-(trifluoromethyl)benzoyl]-5-(cyclobutylmethyl)-11-methyl-7-[4-(4-methyl-1H-triazol-5-yl)phenyl]-2,3,7,12-tetrazatricyclo[7.4.0.0^2,6]trideca-1(9),3,5-trien-8-one]	50 to 500 nM
Cc1nn[nH]c1-c1ccc(-n2c(=O)c3c(n4ncc(CC5CC5)c24)CN(C(=O)c2ccc(Br)c(C(F)(F)F)c2)[C@@H](C)C3)cc1 (stereo in doubt) [Compound 75b, rac-(11S)-12-[4-bromo-3-(trifluoromethyl)benzoyl]-5-(cyclopropylmethyl)-11-methyl-7-[4-(4-methyl-1H-triazol-5-yl)phenyl]-2,3,7,12-tetrazatricyclo[7.4.0.0^2,6]trideca-1(9),3,5-trien-8-one]	50 to 500 nM
CNC(=O)c1ccc(-n2c(=O)c3c(n4ncc(Cc5ccccc5)c24)CN(C(=O)c2ccc(Br)c(C(F)(F)F)c2)[C@@H](C)C3)cc1 (stereo in doubt) [Compound 38b, N-methyl-4-[rac-(11S)-5-benzyl-12-[4-bromo-3-(trifluoromethyl)benzoyl]-11-methyl-8-oxo-2,3,7,12-tetrazatricyclo[7.4.0.0^2,6]trideca-1(9),3,5-trien-7-yl]benzamide]	< 50 nM
CNc1n[nH]c2cc(-n3c(=O)c4c(n5ncc(CC(C)C)c35)CN(C(=O)c3ccc(Br)c(Cl)c3)[C@@H](C)C4)ccc12 (stereo in doubt) [Compound 57b, rac-(11S)-12-(4-bromo-3-chloro-benzoyl)-5-isobutyl-11-methyl-7-[3-(methylamino)-1H-indazol-6-yl]-2,3,7,12-tetrazatricyclo[7.4.0.0^2,6]trideca-1(9),3,5-trien-8-one]	50 to 500 nM
